This passage reports IC50 results from US20210300909A1, “IMMUNOMODULATORS, COMPOSITIONS AND METHODS THEREOF” (BETTA PHARMACEUTICALS CO., LTD, priority 2018, published 2021).

As usually defined, the IC50 is the concentration that gives 50% inhibition.

T1 sequence (Q9NZQ7 19-238): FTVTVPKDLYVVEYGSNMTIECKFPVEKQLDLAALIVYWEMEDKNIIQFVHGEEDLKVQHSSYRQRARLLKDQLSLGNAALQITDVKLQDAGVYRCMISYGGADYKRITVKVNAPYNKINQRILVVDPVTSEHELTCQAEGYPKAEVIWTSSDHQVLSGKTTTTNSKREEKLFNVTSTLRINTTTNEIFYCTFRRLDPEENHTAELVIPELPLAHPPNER

One experiment concerns the target T1, PD-1/PD-L1 protein/protein interaction (Homo sapiens, UniProt Q9NZQ7).
T1 construct: Recombinant human PD-L1 protein (19-238) with a His-tag at the C-terminus; purchased AcroBiosystems PD1-H5229 (PD-L1); PD1-H5257 (PD-1)
The experiment can be described thus: PD-1/PD-L1 homogenous time-resolved fluorescence (HTRF) binding assay.
Settings: not given
The procedure:
Resolved Fluorescence (HTRF) Binding Assay
The assays were conducted in a standard black 384-well polystyrene plate with a final volume of 20 μL. Inhibitors were first serially diluted in DMSO and then added to the plate wells before the addition of other reaction components. The final concentration of DMSO in the assay was 1%. The assays were carried out at 25° C. in the PBS buffer (pH 7.4) with 0.05% Tween-20 and 0.1% BSA. […] Plates were centrifuged and proteins were preincubated with inhibitors for 40 min. The incubation was followed by the addition of 10 μL of HTRF detection buffer supplemented with Europium cryptate-labeled anti-human IgG (PerkinElmer-AD0212) specific for Fc and anti-His antibody conjugated to SureLight®-Allophycocyanin (APC, PerkinElmer-AD0059H). After centrifugation, the plate was incubated at 25° C. for 60 min. […] Final concentrations in the assay were […], 10 nM PD-L1, nM europium anti-human IgG and 20 nM anti-His-Allophycocyanin. IC50 determination was performed by fitting the curve of percent control activity versus the log of the inhibitor concentration using the GraphPad Prism 5.0 software.
Regarding `COc1cc2oc(-c3cccc(-c4cccc(CC5OC5CN5CCOCC5)c4C)c3C)nc2cc1CN1CCCCC1C(=O)O` (stereo not shown) [Compound 27, 1-((2-(2,2′-dimethyl-3′-((3-(morpholinomethyl)oxiran-2-yl)methyl)-[1,1′-biphenyl]-3-yl)-6-methoxybenzo[d]oxazol-5-yl)methyl)piperidine-2-carboxylic acid], the IC50 lay within 25 to 150 nM.

`COc1cc2oc(-c3cccc(-c4cccc(OCCCN(C)C)c4C)c3C)nc2cc1CN1CCCCC1C(=O)O` (stereo not shown) [Compound 30, 1-((2-(3′-(3-(dimethylamino)propoxy)-2,2′-dimethyl-[1,1′-biphenyl]-3-yl)-6-methoxybenzo[d]oxazol-5-yl)methyl)piperidine-2-carboxylic acid]: the IC50 was under 25 nM.

In turn, `COc1cc2oc(-c3cccc(-c4cccc(OCCCN5CCOCC5)c4C#N)c3C)nc2cc1CN1CCOCC1C(=O)O` (stereo not shown) [Compound 18, 4-((2-(2′-cyano-2-methyl-3′-(3-morpholinopropoxy)-[1,1′-biphenyl]-3-yl)-6-methoxybenzo[d]oxazol-5-yl)methyl)morpholine-3-carboxylic acid] registered an IC50 of under 25 nM.

The compound `COc1cc2oc(-c3cccc(-c4cccc(C/C=C/CN5CCOCC5)c4C)c3C)nc2cc1CN1CCCCC1C(=O)O` (stereo not shown) [Compound 6, (E)-1-((2-(2,2′-dimethyl-3′-(4-morpholinobut-2-en-1-yl)-[1,1′-biphenyl]-3-yl)-6-methoxybenzo[d]oxazol-5-yl)methyl)piperidine-2-carboxylic acid] came in with an IC50 of under 25 nM.

In turn, `COc1cc2nc(-c3cccc(-c4cccc(OCCCN5CCOCC5)c4)c3C)oc2cc1CN1CCCCC1C(=O)O` (stereo not shown) [Compound 34, 1-((5-methoxy-2-(2-methyl-3′-(3-morpholinopropoxy)-[1,1′-biphenyl]-3-yl)benzo[d]oxazol-6-yl)methyl)piperidine-2-carboxylic acid] yielded a half-inhibitory concentration (IC50) of under 25 nM.

As to `COc1cc2oc(-c3cccc(-c4cccc(OCCCN5CCOCC5)c4)c3C)nc2cc1CN1CCC(F)(F)CC1C(=O)O` (stereo not shown) [Compound 16, 4,4-difluoro-1-((6-methoxy-2-(2-methyl-3′-(3-morpholinopropoxy)-[1,1′-biphenyl]-3-yl)benzo[d]oxazol-5-yl)methyl)piperidine-2-carboxylic acid], the concentration for half-maximal inhibition (IC50) was 25 to 150 nM.

With `COc1cc2oc(-c3cccc(-c4cccc5c4CCN5C(=O)CCN4CCOCC4)c3C)nc2cc1CN1CCOCC1C(=O)O` (stereo not shown) [Compound 38, 4-((6-methoxy-2-(2-methyl-3-(1-(3-morpholinopropanoyl)indolin-4-yl)phenyl)benzo[d]oxazol-5-yl)methyl)morpholine-3-carboxylic acid], the IC50 is under 25 nM.

For `COc1cc2oc(-c3cccc(-c4cccc(OCCCN5CCOCC5)c4)c3C)nc2cc1CNC(C)(CO)C(=O)O` (stereo not shown) [Compound 21, 3-hydroxy-2-(((6-methoxy-2-(2-methyl-3′-(3-morpholinopropoxy)-[1,1′-biphenyl]-3-yl)benzo[d]oxazol-5-yl)methyl)amino)-2-methylpropanoic acid], the IC50 is under 25 nM.

Regarding `COCCN(C)CCCOc1cccc(-c2cccc(-c3nc4cc(CN5CCCCC5C(=O)O)c(OC)cc4o3)c2C)c1C` (stereo not shown) [Compound 31, 1-((6-methoxy-2-(3′-(3-((2-methoxyethyl)(methyl)amino)propoxy)-2,2′-dimethyl-[1,1′-biphenyl]-3-yl)benzo[d]oxazol-5-yl)methyl)piperidine-2-carboxylic acid], the IC50 is under 25 nM.

As for `COc1cc2oc(-c3cccc(-c4cccc(OCCCN5CCOCC5)c4F)c3C)nc2cc1CN1CCCCC1C(=O)O` (stereo not shown) [Compound 9, 1-((2-(2′-fluoro-2-methyl-3′-(3-morpholinopropoxy)-[1,1′-biphenyl]-3-yl)-6-methoxybenzo[d]oxazol-5-yl)methyl)piperidine-2-carboxylic acid], the concentration for half-maximal inhibition (IC50) was under 25 nM.

`COc1cc2oc(-c3cccc(-c4cccc(CCCCN5CCOCC5)c4)c3C)nc2cc1CN1CCCCC1C(=O)O` (stereo not shown) [Compound 10, 1-((6-methoxy-2-(2-methyl-3′-(4-morpholinobutyl)-[1,1′-biphenyl]-3-yl)benzo[d]oxazol-5-yl)methyl)piperidine-2-carboxylic acid] returned an IC50 of 25 to 150 nM.

Consider `COc1cc2nc(-c3cccc(-c4cccc(OCCCN5CCOCC5)c4)c3C)n(C)c2cc1CN1CCCCC1C(=O)O` (stereo not shown) [Compound 33, 1-((5-methoxy-1-methyl-2-(2-methyl-3′-(3-morpholinopropoxy)-[1,1′-biphenyl]-3-yl)-1H-benzo[d]imidazol-6-yl)methyl)piperidine-2-carboxylic acid], for which the 50% inhibitory concentration (IC50) was under 25 nM.

Turning to `COc1cc2c(cc1CN1CCOCC1C(=O)O)nc(-c1cccc(-c3cccc(OCCCN4CCOCC4)c3)c1C)n2C` (stereo not shown) [Compound 14, 4-((6-methoxy-1-methyl-2-(2-methyl-3′-(3-morpholinopropoxy)-[1,1′-biphenyl]-3-yl)-1H-benzo[d]imidazol-5-yl)methyl)morpholine-3-carboxylic acid], the IC50 was under 25 nM.

`COc1cc2c(cc1CN1CCCCC1C(=O)O)nc(-c1cccc(-c3cccc(OCCCN4CCOCC4)c3F)c1C)n2C` (stereo not shown) [Compound 13, 1-((2-(2′-fluoro-2-methyl-3′-(3-morpholinopropoxy)-[1,1′-biphenyl]-3-yl)-6-methoxy-1-methyl-1H-benzo[d]imidazol-5-yl)methyl)piperidine-2-carboxylic acid]: the IC50 is under 25 nM.

The compound `COc1cc2oc(-c3cccc(-c4cccc(NC(=O)NCCNCCO)c4)c3C)nc2cc1CN1CCCCC1C(=O)O` (stereo not shown) [Compound 5, 1-((2-(3′-(3-(2-((2-hydroxyethyl)amino)ethyl)ureido)-2-methyl-[1,1′-biphenyl]-3-yl)-6-methoxybenzo[d]oxazol-5-yl)methyl)piperidine-2-carboxylic acid] had a half-maximal inhibitory concentration (IC50) of 25 to 150 nM.

Compound `COc1cc2nc(-c3cccc(-c4cccc(OCCCN5CCOCC5)c4)c3C)sc2cc1CN1CCCC1C(=O)O` (stereo not shown) [Compound 26, ((5-methoxy-2-(2-methyl-3′-(3-morpholinopropoxy)-[1,1′-biphenyl]-3-yl)benzo[d]thiazol-6-yl)methyl)proline] yielded an IC50 of under 25 nM.

For `Cc1c(-c2cccc(OCCCN3CCOCC3)c2)cccc1-c1nc2cc(CN3CCCCC3C(=O)O)c(OCc3ccccn3)cc2o1` (stereo not shown) [Compound 22, 1-((2-(2-methyl-3′-(3-morpholinopropoxy)-[1,1′-biphenyl]-3-yl)-6-(pyridin-2-ylmethoxy)benzo[d]oxazol-5-yl)methyl)piperidine-2-carboxylic acid], the IC50 was 25 to 150 nM.

`COc1cc2nc(-c3cccc(-c4cccc(OCCCN5CCOCC5)c4)c3C)sc2cc1CN1CCCCC1C(=O)O` (stereo not shown) [Compound 35, 1-((5-methoxy-2-(2-methyl-3′-(3-morpholinopropoxy)-[1,1′-biphenyl]-3-yl)benzo[d]thiazol-6-yl)methyl)piperidine-2-carboxylic acid] showed an IC50 of under 25 nM.

The experiment is the same for the next values; noted with them: HTRF, recombinant human PD-1 (Fc tag) / PD-L1 (His-tag), 25° C., PBS pH 7.4; class symbols; read-out: IC50.
With `Cc1c(OCCCN2CCOCC2)cccc1-c1cccc(-c2nc3cc(CNCC(=O)O)c(N(C)C)cc3s2)c1C` [Compound 36, ((2-(2,2′-dimethyl-3′-(3-morpholinopropoxy)-[1,1′-biphenyl]-3-yl)-6-(dimethylamino)benzo[d]thiazol-5-yl)methyl)glycine], the IC50 lay in the range of 25 to 150 nM.

In the case of `COc1cc2oc(-c3cccc(-c4ccc(Cl)c(OCCCN5CCOCC5)c4)c3C)nc2cc1CN1CCCCC1C(=O)O` (stereo not shown) [Compound 11, 1-((2-(4′-chloro-2-methyl-3′-(3-morpholinopropoxy)-[1,1′-biphenyl]-3-yl)-6-methoxybenzo[d]oxazol-5-yl)methyl)piperidine-2-carboxylic acid], the IC50 was 25 to 150 nM.

`COc1cc2oc(-c3cccc(-c4cccc(OCCCN5CCOCC5)c4)c3C)nc2cc1CNCCO` [Compound 1, 2-(((6-methoxy-2-(2-methyl-3′-(3-morpholinopropoxy)-[1,1′-biphenyl]-3-yl)benzo[d]oxazol-5-yl)methyl)amino)ethan-1-ol]: the half-inhibitory concentration (IC50) was under 25 nM.

`COc1cc2oc(-c3cccc(-c4cccc5c4CCN5C(=O)CN4CCOCC4)c3C)nc2cc1CN1CCCCC1C(=O)O` (stereo not shown) [Compound 40, 1-((6-methoxy-2-(2-methyl-3-(1-(2-morpholinoacetyl)indolin-4-yl)phenyl)benzo[d]oxazol-5-yl)methyl)piperidine-2-carboxylic acid]: the IC50 is over 150 nM.

Take `COc1cc2oc(-c3cccc(-c4cccc(OCCCN5CCOCC5)c4)c3C)nc2cc1CN(C)CC(=O)O` [Compound 19, N-((6-methoxy-2-(2-methyl-3′-(3-morpholinopropoxy)-[1,1′-biphenyl]-3-yl)benzo[d]oxazol-5-yl)methyl)-N-methylglycine]: the IC50 is 25 to 150 nM.

As for `CCOc1cc2oc(-c3cccc(-c4cccc5c4CCN5C(=O)CCN4CCOCC4)c3C)nc2cc1CN1CCCCC1C(=O)O` (stereo not shown) [Compound 39, 1-((6-ethoxy-2-(2-methyl-3-(1-(3-morpholinopropanoyl)indolin-4-yl)phenyl)benzo[d]oxazol-5-yl)methyl)piperidine-2-carboxylic acid], the IC50 is under 25 nM.

The same experiment, now with this note: HTRF, recombinant human PD-1 (Fc tag) / PD-L1 (His-tag), 25° C., PBS pH 7.4; numeric values; read-out: IC50.
With `COc1cc2oc(-c3cccc(-c4ccccc4)c3C)nc2cc1CN1CCCCC1C(=O)O` (stereo not shown) [Compound 23, 1-((6-methoxy-2-(2-methyl-[1,1′-biphenyl]-3-yl)benzo[d]oxazol-5-yl)methyl)piperidine-2-carboxylic acid], the IC50 was 0.61 nM.
